# Test results taken from patent publication US8697727B2, “N-substituted-heterocycloalkyloxybenzamide compounds and methods of use” (Rigel Pharmaceuticals, Inc., priority 2006, dated 2014).
# System: AMPK
# Assay: AMPK activation, enzyme-linked immunosorbent assay
# Format: cell-based
# How it was run: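 Each compound's EC50 for AMPK activation was the endpoint. In a cell-based assay, AMPK activity was read out as the relative concentration of phosphorylated acetyl-CoA carboxylase, a product of AMPK, measured by enzyme-linked immunosorbent assay. Values fell into the ranges less than 1 μM, 1-10 μM, 10-20 μM, 20-50 μM, 50-100 μM, and >100 μM.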
row,Compound,EC50 [nM]
1,"O=C(NC1CCN(Cc2ccccc2)CC1)c1ccc(OC2CCN(Cc3ccco3)CC2)cc1 [Compound 3, N-(1-benzylpiperidin-4-yl)-4-(1-(furan-2-ylmethyl)piperidin-4-yloxy)benzamide]",1000 to 10000
2,"Cn1cncc1CN1CCC(Oc2ccc(C(=O)NC3CCN(Cc4ccccc4)CC3)cc2)CC1 [Compound 4, N-(1-benzylpiperidin-4-yl)-4-(1-((l-methyl-1H-imidazol-5-yl)methyl)piperidin-4-yloxy)benzamide]",> 100000
3,"Cn1cncc1CN1CCC(Oc2ccc(C(=O)NC3CCN(Cc4ccccc4)CC3)cc2Cl)CC1 [Compound 5, N-(1-benzylpiperidin-4-yl)-3-chloro-4-(1-((l-methyl-1H-imidazol-5-yl)methyl)piperidin-4-yloxy)benzamide]",50000 to 100000
4,"COc1cc(C(=O)NC2CCN(Cc3ccccc3)CC2)ccc1OC1CCN(c2cccs2)CC1 [Compound 8, N-(1-benzylpiperidin-4-yl)-3-methoxy-4-(1-(thiophen-2-yl)piperidin-4-yloxy)benzamide]",1000 to 10000
5,"COc1cc(C(=O)NC2CCN(Cc3ccccc3)CC2)ccc1OC1CCN(S(C)(=O)=O)CC1 [Compound 9, N-(1-benzylpiperidin-4-yl)-3-methoxy-4-(1-(methylsulfonyl)piperidin-4-yloxy)benzamide]",20000 to 50000
6,"O=C(NC1CCN(Cc2ccccc2)CC1)c1ccc(OC2CCN(c3cccs3)CC2)c(Cl)c1 [Compound 10, N-(1-benzylpiperidin-4-yl)-3-chloro-4-(1-(thiophen-2-yl)piperidin-4-yloxy)benzamide]",1000 to 10000
7,"O=C(NC1CCN(Cc2ccccc2)CC1)c1ccc(OC2CCN(c3ccco3)CC2)c(Cl)c1 [Compound 11, N-(1-benzylpiperidin-4-yl)-3-chloro-4-(1-(furan-2-yl)piperidin-4-yloxy)benzamide]",1000 to 10000
8,"COc1cc(C(=O)NC2CCN(Cc3ccccc3)CC2)ccc1OC1CCN(c2ccco2)CC1 [Compound 12, N-(1-benzylpiperidin-4-yl)-3-methoxy-4-(1-(furan-2-yl)piperidin-4-yloxy)benzamide]",1000 to 10000
9,"O=C(NC1CCN(Cc2ccccc2)CC1)c1cccc(OC2CCN(Cc3ccccc3)CC2)c1 [Compound 13, N-(1-benzylpiperidin-4-yl)-3-(1-benzylpiperidin-4-yloxy)benzamide]",20000 to 50000
10,"CC(c1ccccc1)N1CCC(Oc2ccc(C(=O)NC3CCN(Cc4ccccc4)CC3)cc2F)CC1 (centres unmarked) [Compound 21, N-(1-benzylpiperidin-4-yl)-3-fluoro-4-(1-(1-phenylethyl)piperidin-4-yloxy)benzamide]",1000 to 10000
11,"O=C(NC1CCN(Cc2ccccc2)CC1)c1ccc(OC2CCN(C(=O)c3ccc(F)cc3)CC2)c(Cl)c1 [Compound 22, N-(1-benzylpiperidin-4-yl)-3-chloro-4-(1-(4-fluorobenzoyl)piperidin-4-yloxy)benzamide]",1000 to 10000
12,"O=C(NC1CCN(Cc2ccccc2)CC1)c1ccc(OC2CCN(Cc3ccccc3C(F)(F)F)CC2)c(Cl)c1 [Compound 24, N-(1-benzylpiperidin-4-yl)-3-chloro-4-(1-(2-(trifluoromethyl)benzyl)piperidin-4-yloxy)benzamide]",10000 to 20000
13,"O=C(NC1CCN(c2ccccc2)CC1)c1ccc(OC2CCN(c3ccc(C(F)(F)F)cc3)CC2)c(F)c1 [Compound 25, 3-fluoro-N-(1-phenylpiperidin-4-yl)-4-(1-(4-(trifluoromethyl)phenyl)piperidin-4-yloxy)benzamide]",> 100000
14,"O=C(NC1CCN(C(=O)c2ccc(F)cc2)CC1)c1ccc(OC2CCN(c3ccc(C(F)(F)F)cc3)CC2)c(F)c1 [Compound 31, 3-fluoro-N-(1-(4-fluorobenzoyl)piperidin-4-yl)-4-(1-(4-(trifluoromethyl)phenyl)piperidin-4-yloxy)benzamide]",< 1000
15,"O=C(NC1CCN(Cc2ccccn2)CC1)c1ccc(OC2CCN(c3ccc(C(F)(F)F)cc3)CC2)c(F)c1 [Compound 32, 3-fluoro-N-(1-(pyridin-2-ylmethyl)piperidin-4-yl)-4-(1-(4-(trifluoromethyl)phenyl)piperidin-4-yloxy)benzamide]",< 1000
16,"COC(=O)c1ccc(CN2CCC(NC(=O)c3ccc(OC4CCN(c5ccc(C(F)(F)F)cc5)CC4)c(F)c3)CC2)cc1 [Compound 33, methyl 4-((4-(3-fluoro-4-(1-(4-(trifluoromethyl)phenyl)piperidin-4-yloxy)benzamido)piperidin-1-yl)methyl)benzoate]",< 1000
17,"CC(C)S(=O)(=O)N1CCC(NC(=O)c2ccc(OC3CCN(c4ccc(C(F)(F)F)cc4)CC3)c(F)c2)CC1 [Compound 34, 3-fluoro-N-(1-(isopropylsulfonyl)piperidin-4-yl)-4-(1-(4-(trifluoromethyl)phenyl)piperidin-4-yloxy)benzamide]",< 1000
18,"O=C(O)c1ccc(CN2CCC(NC(=O)c3ccc(OC4CCN(c5ccc(C(F)(F)F)cc5)CC4)c(F)c3)CC2)cc1 [Compound 35, 4-((4-(3-fluoro-4-(1-(4-(trifluoromethyl)phenyl)piperidin-4-yloxy)benzamido)piperidin-1-yl)methyl)benzoic acid]",1000 to 10000
19,"CC(C)(C)c1ccc(CN2CCC(Oc3ccc(C(=O)NC4CCN(c5ccccc5)CC4)cc3F)CC2)cc1 [Compound 36, 4-(1-(4-tert-butylbenzyl)piperidin-4-yloxy)-3-fluoro-N-(1-phenylpiperidin-4-yl)benzamide]",< 1000
20,"O=C(NC1CCN(Cc2ccccc2)CC1)c1ccc(OC2CCN(Cc3ccncc3)CC2)c(F)c1 [Compound 37, N-(1-benzylpiperidin-4-yl)-3-fluoro-4-(1-(pyridin-4-ylmethyl)piperidin-4-yloxy)benzamide]",< 1000

# Results, then the molecule that gave them:
row,EC50 [nM],Compound
1,< 1000,"O=C(NC1CCN(Cc2ccccc2)CC1)c1ccc(OC2CCN(Cc3ccncc3)CC2)c(Cl)c1 [Compound 6, N-(1-benzylpiperidin-4-yl)-3-chloro-4-(1-(pyridin-4-ylmethyl)piperidin-4-yloxy)benzamide]"
2,< 1000,"COc1cc(C(=O)NC2CCN(Cc3ccccc3)CC2)ccc1OC1CCN(CCCc2ccccc2)CC1 [Compound 7, N-(1-benzylpiperidin-4-yl)-3-methoxy-4-(1-(3-phenylpropyl)piperidin-4-yloxy)benzamide]"
3,< 1000,"O=C(NC1CCN(Cc2ccccc2)CC1)c1ccc(OC2CCN(Cc3ccccc3)CC2)c(Cl)c1 [Compound 14, N-(1-benzylpiperidin-4-yl)-4-(1-benzylpiperidin-4-yloxy)-3-chlorobenzamide]"
4,< 1000,"O=C(NC1CCN(Cc2ccccc2)CC1)c1ccc(OC2CCN(Cc3ccc4c(c3)OCCO4)CC2)c(Cl)c1 [Compound 15, N-(1-benzylpiperidin-4-yl)-3-chloro-4-(1-((2,3-dihydrobenzo[b][1,4]dioxin-6-yl)methyl)piperidin-4-yloxy)benzamide]"
5,< 1000,"CC(C)(C)c1ccc(CN2CCC(Oc3ccc(C(=O)NC4CCN(Cc5ccccc5)CC4)cc3Cl)CC2)cc1 [Compound 16, N-(1-benzylpiperidin-4-yl)-4-(1-(4-tert-butylbenzyl)piperidin-4-yloxy)-3-chlorobenzamide]"
6,< 1000,"O=C(NC1CCN(Cc2ccccc2)CC1)c1ccc(OC2CCN(c3ccc(C(F)(F)F)cc3)CC2)c(Cl)c1 [Compound 17, N-(1-benzylpiperidin-4-yl)-3-chloro-4-(1-(4-(trifluoromethyl)phenyl)piperidin-4-yloxy)benzamide]"
7,< 1000,"O=C(NC1CCN(Cc2ccccc2)CC1)c1ccc(OC2CCN(C(=O)c3ccc(C(F)(F)F)cc3)CC2)c(Cl)c1 [Compound 18, N-(1-benzylpiperidin-4-yl)-3-chloro-4-(1-(4-(trifluoromethyl)benzoyl)piperidin-4-yloxy)benzamide]"
8,< 1000,"O=C(NC1CCN(Cc2ccccc2)CC1)c1ccc(OC2CCN(Cc3ccc(F)cc3)CC2)c(Cl)c1 [Compound 19, N-(1-benzylpiperidin-4-yl)-3-chloro-4-(1-(4-fluorobenzyl)piperidin-4-yloxy)benzamide]"
9,< 1000,"CC(C)(C)c1ccc(CN2CCC(Oc3ccc(C(=O)NC4CCN(Cc5ccccc5)CC4)cc3F)CC2)cc1 [Compound 20, N-(1-benzylpiperidin-4-yl)-3-fluoro-4-(1-(4-tert-butylbenzyl)piperidin-4-yloxy)benzamide]"
10,< 1000,"O=C(NC1CCN(Cc2ccccc2)CC1)c1ccc(OC2CCN(c3ccc(C(F)(F)F)cc3)CC2)c(F)c1 [Compound 23, N-(1-benzylpiperidin-4-yl)-3-fluoro-4-(1-(4-(trifluoromethyl)phenyl)piperidin-4-yloxy)benzamide]"
11,< 1000,"CC(C)(C)OC(=O)N1CCC(NC(=O)c2ccc(OC3CCN(c4ccc(C(F)(F)F)cc4)CC3)c(F)c2)CC1 [Compound 26, tert-butyl 4-(3-fluoro-4-(1-(4-(trifluoromethyl)phenyl)piperidin-4-yloxy)benzamido)piperidine-1-carboxylate]"
12,< 1000,"O=C(NC1CCN(Cc2ccc(F)cc2)CC1)c1ccc(OC2CCN(c3ccc(C(F)(F)F)cc3)CC2)c(F)c1 [Compound 27, 3-fluoro-N-(1-(4-fluorobenzyl)piperidin-4-yl)-4-(1-(4-(trifluoromethyl)phenyl)piperidin-4-yloxy)benzamide]"
13,< 1000,"O=C(NC1CCN(Cc2ccncc2)CC1)c1ccc(OC2CCN(c3ccc(C(F)(F)F)cc3)CC2)c(F)c1 [Compound 28, 3-fluoro-N-(1-(pyridin-4-ylmethyl)piperidin-4-yl)-4-(1-(4-(trifluoromethyl)phenyl)piperidin-4-yloxy)benzamide]"
14,< 1000,"O=C(NC1CCN(Cc2cccnc2)CC1)c1ccc(OC2CCN(c3ccc(C(F)(F)F)cc3)CC2)c(F)c1 [Compound 29, 3-fluoro-N-(1-(pyridin-3-ylmethyl)piperidin-4-yl)-4-(1-(4-(trifluoromethyl)phenyl)piperidin-4-yloxy)benzamide]"
15,< 1000,"CC(C)(C)C(=O)N1CCC(NC(=O)c2ccc(OC3CCN(c4ccc(C(F)(F)F)cc4)CC3)c(F)c2)CC1 [Compound 30, 3-fluoro-N-(1-pivaloylpiperidin-4-yl)-4-(1-(4-(trifluoromethyl)phenyl)piperidin-4-yloxy)benzamide]"
